From patent US20200375963A1 (priority 2017, published 2020)

Tests used:
Format in all cases: cell-based, human
[1] = test system: A3A-mediated RNA editing (SDHB c.136 C>U) in monocyte-enriched PBMCs (MEPs); experiment: SDHB c.136 C>U RNA editing in monocyte-enriched PBMCs (allele specific RT-qPCR)
Description: (§1) Leukoreduction filters (Terumo BCT, Lakewood, Colo.), waste products of platelet donation process, were used to isolate PBMCs by an IRB-approved protocol. PBMCs were isolated using Histopaque-1077 (Sigma). Monocyte-enriched PBMCs (MEPs) were prepared using cold-aggregation method with slight modifications (30,60) Monocytes were isolated from MEPs or PBMCs using EasySep Human CD14 Positive Selection Kit (STEMCELL Technologies). Flow cytometric verification of isolated CD14+ cells were performed using RPCI core facility services. The MEPs were cultured at an average density of 25-35×10^6/ml in 1 or 2 ml per well in 6- or 12-well standard tissue culture plates under standard conditions (37° C./5% CO2) in RPMI-1640 medium with 10% FBS, 100 U/ml penicillin and […] streptomycin (Mediatech). Isolated CD14+ and CD14− cells were cultured at approximately 5×10^6 cell/ml and 7×10^6 cells per ml densities, respectively. THP-1 and TLA-HEK293T cell lines were purchased from ATCC, and Open Biosystems®, respectively, and cultured in recommended conditions. THP-1 cells were cultured in 10^6 cells per 100 μl in 96-well culture plates in ATCC-formulated-1640 medium (30-2001), whereas 293T cells were cultured in DMEM medium supplemented with 10% FBS.
(§2) Cells were cultured under 1% or 6% O2, 5% CO2 and 94% N2 at 37° C. using Xvivo System (Biospherix). Human ‘universal’ type I IFN was obtained from PBL Assay Science and used at 600 U/ml. Atpenin A5 (Cayman chemical #11898), myxothiazol (Sigma-Aldrich, #T5580) and 2-Thenoyltrifluoroacetone (TTFA) (Sigma-Aldrich, #T27006) were used at 1-2 μM and 400 μM final concentrations, respectively. DFO (Sigma-Aldrich #D9533) and DMOG (Sigma-Aldrich #D3695) were used in 0.5 mM and 1.0 mM final concentrations, respectively.
(§3) RNA and plasmid DNA were isolated with commercial kits (TRIzol, Life Technologies and Qiagen, respectively). RNA/DNA was quantified by Nanodrop 2000 (Thermo Fisher). Proteins were quantified using Bio-Rad Dc assay with BSA standards. RNA was reverse transcribed with the Transcriptor First Strand cDNA Synthesis (Roche) kit. SDHB c.136C>U RNA editing was quantified by allele specific RT-qPCR PCR oligonucleotide primers (FIG. 13) were obtained from Integrated DNA Technologies, Inc. ADM, ELL2, HILPDA, NGLY1, MET, TKTL1, VEGFA and B2M gene expression levels was assessed by qPCR using FastStart Taq DNA polymerase and SYBR Green I dye on a LightCycler 480 System (Roche). Quantification cycle values were calculated by the instrument software using the maximum second derivative method and the mean quantification cycle value of duplicate PCR reactions was used for analysis. Delta delta CT method is used to infer gene expression changes.

HIF-1α [2] = experiment: HIF-1α immunoblot of HEK293T cells
Description: as §1, §2
(§4) 2× Laemmeli buffer (BIO-RAD) was used to prepare whole cell lysates. The lysate resuspended in the Laemmeli buffer was heated at 95° C. for 15 minutes, and 40 μl of the sample was used to perform gel electrophoresis on pre-cast, 4%-15% gradient polyacrylamide gels (Mini-PROTEAN TGX, Bio-Rad) in Laemmeli buffer system. Mouse monoclonal anti-HIF1α (product number GTX628480, GT10211; 1:1000 dilution) and mouse monoclonal anti-β-actin (product number AM4302, AC-15; 1:15,000 dilution) was used to detect HIF-1α or actin, respectively followed by incubation with HRP-conjugated goat anti-mouse antibodies (Life Technologies) at 1:2000 dilution.

[3] = test system: SDHB c.136C>U RNA editing in CD14+ monocytes; experiment: SDHB c.136C>U RNA editing in CD14+ monocytes isolated after culture of MEPs; settings: CD14+ cells, AtA5/normoxia 2 days, n=3 donors; normoxic controls 5.4%±1.7%
Source text: We examined whether MTCII also regulates induction of gene expression in primary monocytes under hypoxia or when inactivated, as observed in SDH-mutated paragangliomas. To test the impact of MTCII inhibition on monocyte gene expression, we cultured MEPs (n=3 donors) in normoxia (1 day), hypoxia (1 day) and AtA5/normoxia (2 days), isolated CD14+ monocytes and performed RNA seq analysis. […] HIF1A but not EPAS1 (HIF2A) or HIF3A is expressed robustly (RPKM averages 21.5, 0.17 and 0.01, respectively) in monocytes. […]
as §3, with “RNA was reverse transcribed with the Transcriptor First Strand cDNA Synthesis (Roche) kit.” left out, “Delta delta CT method is used to infer gene expression changes.” left out

[4] = test system: hypoxia-related gene expression in CD14+ monocytes; experiment: Gene expression in CD14+ monocytes (RNA seq, RT-qPCR); settings: for mRNA expression of VEGFA and HILPDA: isolated CD14+ monocytes, normoxia, 1 day, n=3 donors
HIF-1α [5] = experiment: HIF-1α immunoblot of CD14+ and CD14− primary cells
Description: as §1, §2, §4

[6] = test system: monocyte-enriched PBMCs (MEPs); experiment: Oxygen consumption in MEPs (MitoXpress-Xtra phosphorescent oxygen probe); settings: approximately 3 hours, n=3 donors
Description: (§5) We first measured oxygen consumption and L-lactate levels to confirm the effect of AtA5 and MXT on mitochondrial respiration in MEPs. We used a phosphorescent oxygen probe (MitoXpress-Xtra) which is quenched by oxygen. Cellular respiration in a closed system depletes oxygen and increases the fluorescence. […] Normoxic induction of RNA editing by MXT is also confirmed in a separate experiment from three additional donors (FIG. 11).
(§6) Oxygen consumption was measured using phosphorescent oxygen probe, MitoXpress-Xtra (Cayman Dual Assay Kit, item no. 601060). Monocytes were enriched to >50% purity by short-term cold aggregation and first cultured in standard conditions for 24 hours without treatment to stimulate metabolic activity. Cells were then centrifuged at 200×g for 7 minutes and resuspended in 1 ml RPMI/1% FBS with or without mitochondrial inhibitors. Cells are covered by mineral oil after addition of MitoXpress-Xtra following manufacturer's protocol. The fluorescence was kinetically measured on a plate reader (Synergy H1) at 20 sec intervals for approximately 3 hours (delay 70 μsec, collection time 30 μsec). Supernatants of the oxygen consumption assay were used to measure L-lactate levels following manufacturer's instructions.

[7] = test system: monocyte-enriched PBMCs (MEPs); experiment: L-Lactate levels in extra-cellular media of MEPs; settings: supernatants of the oxygen consumption assay
Description: as §5, §6

HIF-1α [8] = experiment: HIF-1α immunoblot of THP-1 cells
Description: as §1
Cells were cultured under 1% or 6% O2, 5% CO2 and 94% N2 at 37° C. using Xvivo System (Biospherix). […]

[9] = test system: hypoxia-regulated genes (HILPDA, VEGFA) in THP-1 cells; experiment: RT-qPCR of hypoxia-regulated genes in THP-1 cells; settings: THP-1, normoxia or hypoxia (1%), 24 hours, HILPDA and VEGFA
Description: (§7) Leukoreduction filters (Terumo BCT, Lakewood, Colo.), waste products of platelet donation process, were used to isolate PBMCs by an IRB-approved protocol. PBMCs were isolated using Histopaque-1077 (Sigma). Monocyte-enriched PBMCs (MEPs) were prepared using cold-aggregation method with slight modifications (30,60) Monocytes were isolated from MEPs or PBMCs using EasySep Human CD14 Positive Selection Kit (STEMCELL Technologies). Flow cytometric verification of isolated CD14+ cells were performed using RPCI core facility services. […]
as §3, with “RNA was reverse transcribed with the Transcriptor First Strand cDNA Synthesis (Roche) kit.” left out, “Delta delta CT method is used to infer gene expression changes.” left out

[10] = test system: hypoxia-regulated genes (ELL2, VEGFA) in 293T cells; experiment: RT-qPCR of hypoxia-regulated genes in 293T cells; settings: normoxia and hypoxia (1% O2), 24 hours
Description: as §7
as §3, with “RNA was reverse transcribed with the Transcriptor First Strand cDNA Synthesis (Roche) kit.” left out, “Delta delta CT method is used to infer gene expression changes.” left out

[11] = test system: hypoxia-response elements (HRE) from PGK1, a HIF-1α target gene; experiment: HRE-luciferase reporter in HEK293T cells; settings: 293T
Description: It is possible that HIF-1α may have degraded depending on cell type, time of analysis (24 h) or another factor. Therefore, we further examined the effect of AtA5 in HEK293T embryonic kidney cell line and THP-1 monocytic leukemia cell line over a 24 hour period. Several studies in cell lines have reported normoxic stabilization of HIF-1α upon knocking down MTCII (Selak et al., (2005), Cancer. Cell, 7, 77-85, Guzy et al., (2008), Mol. Cell. Biol., 28, 718-731, Cervera et al., (2008), Cancer Res., 68, 4058-4067). […] Since AtA5 appeared to suppress HIF-1α in mild hypoxia, we exposed the cells to both 6% and 1% O2. […] To confirm the suppression of HIF-regulated gene expression, we used a plasmid construct expressing firefly luciferase under the control of three hypoxia-response elements […] from PGK1, a HIF-1α target gene.
HEK293T cells were cotransfected with the 400 ng of HRE-luciferase (Addgene, plasmid #26731), 1 ng of pRL-SV40 plasmid, 600 ng of pcDNA 3.1(+) (control empty vector) per well at ˜50-60% confluency using jetPRIME (Polyplus-transfection) in 12-well culture plates as per the manufacturer's instructions. Transfection efficiency was 60%-80% as assessed by fluorescent microscopy of cells co-transfected with the pLemiR plasmid DNA (Open Biosystems) for expression of a red fluorescent protein. Cells were harvested 2 days after transfection for measurement of their HRE and Renilla luciferase activities using Dual-Luciferase Reporter Assay System (Promega). HRE expression was quantified as a ratio of HRE/Renilla luciferase activities.

[12] = HEK293T, normoxia, 24 hours, DMOG 1 mM, DFO 0.5 mM, AtA5 1 μM
[13] = inhibitor jointly with hypoxia (1% O2), compared to hypoxia alone
[14] = hypoxia (1% O2), monocytes isolated from PBMCs then cultured 24 hours, three donors
[15] = normoxia, monocytes isolated from PBMCs then cultured 24 hours

| Compound | SDHB c.136 C>U RNA editing ([1]; normoxia, 1-3 days) | stabilization of HIF-1α (HIF-1α [2]; [12]) | SDHB c.136 C>U RNA editing [1, 13] | mRNA expression of VEGFA and HILPDA [4] | HIF-1α stabilization (western blot) (HIF-1α [5]; [14]) | HIF-1α stabilization (western blot) (HIF-1α [5]; [15]) | oxygen consumption [6] | L-Lactate levels [7] | stabilization of HIF-1α (HIF-1α [2]; 293T, 1% O2, 24 hours) | stabilization of HIF-1α (HIF-1α [2]; 293T, 6% O2, 24 hours) | expression of hypoxia-regulated genes [9] | expression of hypoxia-regulated genes [10] | HRE-driven expression (ratio of HRE/Renilla luciferase activities) ([11]; 6% O2, 24 hours) | also measured |
| --- | --- | --- | --- | --- | --- | --- | --- | --- | --- | --- | --- | --- | --- | --- |
| O=C(CC(=O)C(F)(F)F)c1cccs1 [TTFA, 2-Thenoyltrifluoroacetone] | also induced RNA editing in normoxia | – | – | – | – | – | – | – | – | – | – | – | – | – |
| CC(=O)N(O)CCCCCNC(=O)CCC(=O)N(O)CCCCCNC(=O)CCC(=O)N(O)CCCCCN.CS(=O)(=O)O [DFO] | – | stabilized HIF-1α in normoxia | – | – | – | – | – | – | – | – | – | – | – | – |
| COc1[nH]c(O)c(C(=O)[C@@H](C)C[C@H](C)[C@@H](Cl)CCl)c(=O)c1OC [AtA5, 3-((2S,4S,5R)-5,6-dichloro-2,4-dimethylhexanoyl)-2-hydroxy-5,6-dimethoxypyridin-4(1H)-one] | induced SDHB c.C136U RNA editing | not AtA5 stabilized HIF-1α | did not further increase RNA editing levels | statistically significantly increased | appeared to enhance the stabilization of HIF-1α in hypoxic monocytes in two of three donors | did not robustly stabilize HIF-1α | reduced but did not abolish it | increased relative to the degree of respiratory inhibition | only at 6% O2 | inhibited stabilization of HIF-1α only at 6% O2 | suppressed | suppressed | statistically significantly suppressed | SDHB c.136 C>U RNA editing, AtA5 together with IFN1 ([1]; hypoxia with IFN1): no additional effect; SDHB c.136 C>U RNA editing, AtA5 together with IFN1 ([1]; normoxia, IFN1 600 U/ml): additive; SDHB c.136C>U RNA editing (mean±SEM) [3]: 32.1%±14.9%; expression of selected genes (ADM, ELL2, HILPDA, NGLY1, MET, TKTL1 and VEGFA), RT-qPCR ([4]; CD14+ cells, AtA5/normoxia day 2): induction of selected highly-expressed genes; transcriptional upregulation of A3A ([4]; CD14+ cells, AtA5/normoxia, RNA seq): without transcriptional upregulation of A3A; RNA editing in genes other than SDHB ([4]; CD14+ cells, RNA seq analysis): induction of RNA editing in genes other than SDHB; weak HIF-1α expression in normoxia (HIF-1α [2]; HEK293T, normoxia, 24 hours, AtA5 1 μM): suppressed the weak HIF-1α expression in normoxia; stabilization of HIF-1α (HIF-1α [8]; THP-1, normoxia, 24 hours): antagonized weak normoxic stabilization of HIF-1α |
| CO/C(=C/C(N)=O)[C@H](C)[C@H](/C=C/c1csc(-c2csc([C@@H](C)/C=C/C=C/C(C)C)n2)n1)OC [MXT, myxothiazol] | induced SDHB mRNA editing in normoxia | – | no statistically significant effect | statistically significantly increased | appeared to enhance the stabilization of HIF-1α in hypoxic monocytes in two of three donors | did not robustly stabilize HIF-1α | completely suppressed oxygen consumption | increased relative to the degree of respiratory inhibition | inhibited it both at 6% O2 and 1% O2 | inhibited it both at 6% O2 and 1% O2 | suppressed | suppressed | inhibited HRE-driven expression | SDHB c.136 C>U RNA editing ([1]; mild hypoxia (6% O2)): increased the editing level; stabilization of HIF-1α (HIF-1α [8]; THP-1, hypoxia 1% O2, 24 hours): inhibited it even at 1% O2; HRE-driven expression (ratio of HRE/Renilla luciferase activities) ([11]; 1% O2, 24 hours): inhibited HRE-driven expression |
| COC(=O)CNC(=O)C(=O)OC [DMOG] | – | stabilized HIF-1α in normoxia | – | – | – | – | – | – | – | – | – | – | – | HIF-1α stabilization (western blot) (HIF-1α [5]; normoxia, CD14+ and CD14− cells isolated after culture of MEPs for 1 or 2 days): caused robust normoxic stabilization of HIF-1α |
